Data taken from patent US20100099564A1, “HERBICIDE COMBINATION COMPRISING DIMETHOXYTRIAZINYL-SUBSTITUTED DIFLUOROMETHANESULFONYLANILIDES” (BAYER CROPSCIENCE AG, priority 2008, published 2010).
Where two headings read alike, the source gives them in different places.

Columns and labels:
Assay type in all cases: in vivo
[1] = tested on: Abuthilon theophrasti (ABUTH); test: Post-emergence action, greenhouse pot test, visual scoring: ABUTH
Method: (§1) Seeds or rhizome pieces of mono- and dicotyledonous harmful and useful plants were placed in peat pots (diameter 4 cm) filled with sandy loam and then covered with soil. The pots were kept in a greenhouse under optimum conditions. In addition, harmful plants encountered in paddy rice cultivation were cultivated in pots with a water level 2 cm above the soil surface.
(§2) About three weeks after the start of the cultivation, the test plants were treated at the 2- to 3-leaf stage. The herbicides, formulated as powder or liquid concentrates, were, either alone or in the combinations according to the invention, sprayed in various dosages on to the green parts of the plants using an application rate of 600 l of water/ha (converted). For further cultivation of the plants, the pots were then again kept under optimum conditions in a greenhouse.
(§3) The visual scoring of the herbicidal effects was carried out in intervals up to 21 days after the treatment. Scoring was carried out in percent in comparison to the untreated control plants. 0%=no herbicidal activity, 100%=complete herbicidal activity=complete kill.
(§4) The percentages from the treatments with the herbicides alone (=individual application) and with the combinations according to the invention (=mixtures) were employed to calculate interactions using the method of Colby. When the observed efficacies of the mixtures exceed the formal sum of the values of the tests with individual applications, they also exceed the expected value according to Colby, which is calculated using the formula below (cf. S. R. Colby; in Weeds 15 (1967) pp. 20 to 22):
(§5) Here: • A, B=activity of components A and B in percent at a dosage of a and b g of ai/ha (=gramm of active substance per hectare), respectively. • E=expected value in % at a dosage of a+b g of ai/ha.
(§6) The combinations according to the invention of herbicides from group (A) with herbicides from group (B) were tested on a broad spectrum of important harmful plants (weed grasses, broad-leaved weeds/Cyperaceae) and useful plants: Triticum aestivum (TRZAS), Stellaria media (STEME), Lolium multiflorum (LOLMU), Veronica persica (VERPE), Alopecurus myosuroides (ALOMY), Matricaria inodora (MATIN), Brassica napus (BRSNW), Viola tricolor (VIOTR), Avena fatua (AVEFA), Amaranthus retroflexus (AMARE), Zea mays (ZEAMX), Pharbitis purpurea (PHBPU), Setaria viridis (SETVI), Fallopia (ex Polygonum) convolvulus (POLCO), Echinochloa crusgaffi (ECHCG), Abuthilon theophrasti (ABUTH), Cyperus esculentus (CYPES), Oryza sativa (ORYSA).
(§7) Of particular interest are the results shown in the tables (Tab.) below, where the following key is used: • (1) EPPO code (former Bayer code) for the treated plant (see above) • (2) Time of scoring: DAT (days after treatment) • (3) Component A tested (identifying number) • (4) Component B tested (identifying number) • (5) Dosage component A [g of ai/ha] • (6) Dosage component B [g of ai/ha] • (7) % activity found • (8) E value (calculated according to Colby; see above) • (9) Comments: “SYNERGY” =synergistic interaction (E value<% activity found); “SAFENING”=safener action on useful plant (E value>% activity found)

[2] = tested on: Fallopia (ex Polygonum) convolvulus (POLCO); test: Post-emergence action, greenhouse pot test, visual scoring: POLCO; settings: 21 DAT
Method: as §1, §2, §3, §4, §5, §6, §7

[3] = tested on: Echinochloa crusgaffi (ECHCG); test: Post-emergence action, greenhouse pot test, visual scoring: ECHCG; settings: 21 DAT
Method: as §1, §2, §3, §4, §5, §6, §7

[4] = tested on: Amaranthus retroflexus (AMARE); test: Post-emergence action, greenhouse pot test, visual scoring: AMARE
Method: as §1, §2, §3, §4, §5

[5] = tested on: Avena fatua (AVEFA); test: Post-emergence action, greenhouse pot test, visual scoring: AVEFA; settings: 21 DAT
Method: as §1, §2, §3, §4, §5, §6, §7

[6] = tested on: Lolium multiflorum (LOLMU); test: Post-emergence action, greenhouse pot test, visual scoring: LOLMU; settings: 10 DAT
Method: as §1, §2, §3, §4, §5, §6, §7

[7] = tested on: Pharbitis purpurea (PHBPU); test: Post-emergence action, greenhouse pot test, visual scoring: PHBPU
Method: as §1, §2, §3, §4, §5, §6, §7

[8] = tested on: Stellaria media (STEME); test: Post-emergence action, greenhouse pot test, visual scoring: STEME; settings: 10 DAT
Method: as §1, §2, §3, §4, §5, §6, §7

[9] = tested on: Veronica persica (VERPE); test: Post-emergence action, greenhouse pot test, visual scoring: VERPE
Method: as §1, §2, §3, §4, §5, §6, §7

[10] = tested on: Matricaria inodora (MATIN); test: Post-emergence action, greenhouse pot test, visual scoring: MATIN
Method: as §1, §2, §3, §4, §5

[11] = tested on: Oryza sativa (ORYSA); test: Post-emergence action, greenhouse pot test, visual scoring: ORYSA; settings: Oryza sativa, post-emergence, 240 h; 10 DAT, B 400 g of ai/ha; read-out: % activity found
Method: as §1, §2, §3, §4, §5, §6, §7

[12] = tested on: Setaria viridis (SETVI); test: Post-emergence action, greenhouse pot test, visual scoring: SETVI; settings: Setaria viridis, post-emergence, 504 h; 21 DAT, B 400 g of ai/ha; read-out: % activity found
Method: as §1, §2, §3, §4, §5, §6, §7

[13] = tested on: Zea mays (ZEAMX); test: Post-emergence action, greenhouse pot test, visual scoring: ZEAMX; settings: Zea mays, post-emergence, B 1200 g of ai/ha, read-out: % activity found
Method: as §1, §2, §3, §4, §5, §6, §7

[14] = tested on: Alopecurus myosuroides (ALOMY); test: Post-emergence action, greenhouse pot test, visual scoring: ALOMY; settings: Alopecurus myosuroides, post-emergence, read-out: % activity found; for pest or weed control at 400 g/ha: B 400 g of ai/ha
Method: as §1, §2, §3, §4, §5

[15] = tested on: Triticum aestivum (TRZAS); test: Post-emergence action, greenhouse pot test, visual scoring: TRZAS; settings: Triticum aestivum, post-emergence, 240 h; 10 DAT, B 400 g of ai/ha; read-out: % activity found
Method: as §1, §2, §3, §4, §5, §6, §7

Compound: CCSC(=O)N1CCCCCC1 [B6-7, S-ethyl hexahydro-1H-azepine-1-carbothioate]
- % activity found ([1]; 10 DAT, dose (6) 300): 0%
- % activity found ([1]; 10 DAT, dose (6) 900): 0%
- % activity found ([2]; dose (6) 300): 0%
- % activity found ([2]; dose (6) 900): 0%
- % activity found ([3]; dose (6) 300): 0%
- % activity found ([3]; dose (6) 900): 0%
- % activity found ([4]; 10 DAT, dose (6) 300): 0%
- % activity found ([4]; 10 DAT, dose (6) 900): 0%
- % activity found ([4]; 21 DAT, dose (6) 300): 0%
- % activity found ([4]; 21 DAT, dose (6) 900): 0%
- % activity found ([5]; dose (6) 300): 0%
- % activity found ([6]; dose (6) 900): 20%
- % activity found ([7]; 10 DAT, dose (6) 300): 0%
- % activity found ([7]; 10 DAT, dose (6) 900): 0%
- % activity found ([7]; 21 DAT, dose (6) 300): 0%
- % activity found ([7]; 21 DAT, dose (6) 900): 0%
- % activity found ([8]; dose (6) 300): 0%
- % activity found ([8]; dose (6) 900): 0%
- % activity found ([9]; 10 DAT, dose (6) 900): 0%
- % activity found ([9]; 21 DAT, dose (6) 300): 0%
- % activity found ([10]; 10 DAT, dose (6) 900): 20%
- % activity found ([10]; 21 DAT, dose (6) 300): 30%
- % activity found ([10]; 21 DAT, dose (6) 900): 30%

Compound: CCCCOCN(C(=O)CCl)c1c(CC)cccc1CC [B4-3, N-(butoxymethyl)-2-chloro-N-(2,6-diethylphenyl)acetamide]
- plant injury at 400 g/ha [11]: 0%
- pest or weed control at 400 g/ha [12]: 0%
- % activity found ([1]; 21 DAT, B 400 g of ai/ha): 0%
- % activity found ([2]; B 400 g of ai/ha): 0%
- % activity found ([2]; B 1200 g of ai/ha): 0%
- % activity found ([4]; 10 DAT, B 400 g of ai/ha): 0%
- % activity found ([4]; 10 DAT, B 1200 g of ai/ha): 0%
- % activity found ([5]; B 1200 g of ai/ha): 50%
- % activity found ([6]; B 400 g of ai/ha): 40%
- % activity found ([7]; 10 DAT, B 400 g of ai/ha): 0%
- % activity found ([7]; 10 DAT, B 1200 g of ai/ha): 0%
- % activity found ([7]; 21 DAT, B 400 g of ai/ha): 0%
- % activity found ([7]; 21 DAT, B 1200 g of ai/ha): 0%
- % activity found ([8]; B 400 g of ai/ha): 0%
- plant injury at 1200 g/ha ([13]; 240 h, 10 DAT): 20%
- plant injury at 1200 g/ha ([13]; 504 h, 21 DAT): 0%
- % activity found ([9]; 10 DAT, B 400 g of ai/ha): 0%
- % activity found ([9]; 10 DAT, B 1200 g of ai/ha): 0%
- % activity found ([9]; 21 DAT, B 1200 g of ai/ha): 20%
- pest or weed control at 400 g/ha ([14]; 240 h, 10 DAT): 20%
- pest or weed control at 400 g/ha ([14]; 504 h, 21 DAT): 0%
- pest or weed control at 1200 g/ha ([14]; 504 h, 21 DAT, B 1200 g of ai/ha): 50%
- plant injury at 400 g/ha [15]: 0%
- % activity found ([10]; 10 DAT, B 400 g of ai/ha): 0%
- % activity found ([10]; 10 DAT, B 1200 g of ai/ha): 20%
- % activity found ([10]; 21 DAT, B 400 g of ai/ha): 0%
- % activity found ([10]; 21 DAT, B 1200 g of ai/ha): 40%
